Assay [1] concerns HEK-293T. The experiment in a line: Loss in viability of human HEK293T cells at 15 uM after 7 hrs relative to control. It is filed as functional, cell-based.
Assay [2] concerns Radical scavenging activity. The experiment in a line: Antioxidant activity measured as ability to reduce ferric tripyridyltriazine complex at 15 uM by FRAP assay. Format: functional.
The subject of assay [3] is HEK-293T. The experiment in a line: Inhibition of TNF-alpha-induced NF-kappaB activation in HEK293T cells. The settings on record: Homo sapiens. Format: functional, cell-based.
For assay [4], the system named is Radical scavenging activity. The experiment in a line: Antioxidant activity measured as ability to react with ABTS radical cation at 15 uM by TRAP assay. Format: functional.
The subject of assay [5] is BV-2. The experiment in a line: Suppression of LPS-stimulated COX2 mRNA expression in mouse BV2 cells at 0.15 uM. Format: functional, cell-based.
Assay [6] relates to BV-2. The experiment in a line: Suppression of LPS-stimulated COX2 mRNA expression in mouse BV2 cells at 4 uM. Format: functional.
Assay [7] relates to BV-2. The experiment in a line: Suppression of LPS-stimulated COX2 mRNA expression in mouse BV2 cells at 20 uM. It is filed as functional, cell-based.

The source made the active and inactive calls. The rule behind the calls is not given here.

Turning to `COc1ccc(/C=C/c2cccc(C)c2)cc1`, the outcome (with HEK-293T [1]; in assay [2]; in assay [4]) was inactive. In addition, the IC50 in the assay on HEK-293T [3] came to 800 nM.
For the molecule `CCOc1ccc(/C=C/c2ccccc2)cc1`, the result (in the assay on HEK-293T [1]; in assay [2]; in assay [4]) was inactive.
With `CN(C)c1ccc(/C=C/c2ccccc2)cc1`, the outcome (in the assay with BV-2 [5]; in assay [2]; in assay [4]) was Active. Besides, the outcome in the assay on HEK-293T [1] was inactive. Besides, in the assay on HEK-293T [3], the midpoint of inhibition, the IC50, lay at 150 nM.
In the case of `COc1ccc(/C=C/c2ccc(O)c(O)c2)cc1`, in the assay on HEK-293T [1], the outcome was inactive. In addition, the outcome in assay [2] and in assay [4] was Active. Further, the half-inhibitory concentration (IC50) with HEK-293T [3] came to 600 nM.
As to `COc1ccc(/C=C/c2cccc(Cl)c2)cc1`, the result (with HEK-293T [1]; in assay [2]; in assay [4]) was inactive. For the same molecule, it took 1000 nM to reach half-maximal inhibition with HEK-293T [3] (IC50).
Consider `COc1ccc(/C=C/c2cccc(O)c2O)cc1`, for which, in the assay with HEK-293T [1], the outcome was inactive. Further, the outcome in assay [2] and in assay [4] was Active.
Turning to `COc1ccc(/C=C/c2ccc(C)cc2)cc1`, the outcome (with HEK-293T [1]; in assay [2]; in assay [4]) was inactive. Moreover, the IC50 with HEK-293T [3] was determined as 900 nM.
Regarding `C(=C\c1ccc2ccccc2c1)/c1ccccc1`, the outcome (with HEK-293T [1]; in assay [2]; in assay [4]) was inactive.
As to `COc1ccc(/C=C/c2ccccc2Cl)cc1`, the outcome (in the assay on HEK-293T [1]; in assay [2]; in assay [4]) was inactive. This molecule displayed an IC50 with HEK-293T [3] of 1500 nM.
For the molecule `COc1ccc(/C=C/c2cccc(OC)c2)cc1`, the result (with HEK-293T [1]; in assay [2]; in assay [4]) was inactive. In the assay with HEK-293T [3], this molecule gave an IC50 of 600 nM.
On to `COc1ccc(/C=C/c2cccc(F)c2)cc1`, for which the outcome (with HEK-293T [1]; in assay [2]; in assay [4]) was inactive.
On to `Oc1ccc(/C=C/c2cc(O)cc(O)c2)cc1` [RESVERATROL], for which the outcome in the assay with HEK-293T [1] was inactive. In addition, the result (in assay [2]; in assay [4]; in the assay with BV-2 [7]) was Active. The same molecule came in with an IC50 in the assay with HEK-293T [3] of 20000 nM. Further, the Activity in the assay with BV-2 [6] amounted to 50%.
Turning to `COc1ccc(/C=C/c2ccccc2F)cc1`, in the assay with BV-2 [5], the result was Active. Further, the outcome (with HEK-293T [1]; in assay [2]; in assay [4]) was inactive. The IC50 in the assay on HEK-293T [3] was found to be 150 nM.

(Values after ChEMBL document CHEMBL1138878 (J Med Chem, 2006).)
